# Laboratory results from patent US20230060588A1 (priority 2021, published 2023).
# Key:
# [1] = tested on: MCF7 cells; type: cell-based
# [2] = tested on: MCF7 cells
# [3] = tested on: A375 cells; type: cell-based
# [4] = tested on: A375 cells
# [5] = tested on: ACE2; type: cell-based, human
# [6] = tested on: Reporter mNeonGreen SARS-CoV-2 virus (2019-nCoV/USA_WA1/2020); type: cell-based
# [7] = tested on: PANC1 cells; type: cell-based
# [8] = tested on: A549 cells; type: cell-based, human
# [9] = tested on: MCF7 cells; type: cell-based; remark: listed apart in the source
# [10] = tested on: PANC1 cells; type: cell-based; remark: listed apart in the source
# [11] = tested on: LN18 cells; type: cell-based
# [12] = tested on: MDA-MB-231 cells; type: cell-based
# [13] = tested on: SARS-CoV-2 S1 protein; type: cell-based
# [14] = tested on: SARS-CoV-2 S1 protein-ACE2; type: binding
# [15] = tested on: A549 ACE2+ cells
# [16] = tested on: SARS-CoV-2; settings: cited from earlier work
structure (smiles),measurement,setting,value
"CC(=O)OC1O[C@H](CO)[C@@H](OC(C)=O)[C@H](OC(C)=O)[C@@H]1OC(C)=O (stereo partly drawn) [1,2,3,4-tetra-O-Acetyl-D-mannopyranose]",ECL binding,[1],moderately reduced
same,MAL2 binding,[1],no effect
same,PNA binding,[1],significantly reduced
same,SNA binding,[1],no effect
same,cell toxicity,[2],induced cell toxicity at a higher concentration
same,concentrations having no impact on cell viability,[2]; human,less than 0.7 mM
"CC(=O)OC1O[C@H](CO)[C@@H](OC(C)=O)[C@H](O)[C@@H]1O (stereo partly drawn) [1,4-di-O-acetyl-D-mannopyranose]",ECL binding,[3],no effect
same,MAL2 binding,[3],no effect
same,PNA binding,[3],significantly reduced
same,SNA binding,[3],no effect
same,cell viability,[4],did not have any influence on cell viability
O=C[C@@H](O)[C@@H](O)[C@H](O)[C@H](O)CO [D-mannose],ACE2 expression,[5],did not significantly change
same,cytoprotection,[6],significant cytoprotection
same,reduction in viral replication,[6],~70%
same,ECL binding,[1],generally reduced
same,MAL2 binding,[1],increasing
same,PNA binding,[1],generally reduced
same,SNA binding,[1],increasing
same,ECL binding,[7],generally reduced
same,MAL2 binding,[7],increasing
same,PNA binding,[7],generally reduced
same,SNA binding,[7],increasing
same,ECL binding,[8],significantly reduced
same,MAL2 binding,[8],slightly enhancing
same,PNA binding,[8],minimal to no influence
same,SNA binding,[8],minimal to no influence
same,disialyl T antigen/T antigen ratio,[9],significantly enhanced
same,sialylation of complex N-glycans,[9],sialic acids were added to multiple N-glycans
same,disialyl T antigen/T antigen ratio,[10],significantly increased
same,sialyl T antigen/T antigen ratio,[10],significantly increased
same,ECL binding,[11],significantly reduced
same,MAL2 binding,[11],no effect on enhancing
same,PNA binding,[11],significantly reduced
same,SNA binding,[11],no effect on enhancing
same,ECL binding,[12],significantly reduced
same,MAL2 binding,[12],no effect on enhancing
same,PNA binding,[12],significantly reduced
same,SNA binding,[12],no effect on enhancing
same,ECL binding to S1 protein,[13],significantly reduced
same,MAL1 binding to S1 protein,[13],moderately reduced
same,MAL2 binding to S1 protein,[13],moderately reduced
same,PNA binding to S1 protein,[13],No PNA binding was observed
same,RSL binding to S1 protein,[13],significantly reduced
same,SNA binding to S1 protein,[13],no change
same,ACE2 binding of S1 protein,[14],reduced ACE2 binding
same,cytotoxicity,[15],no observed cytotoxicity
same,total cell count,[15],negligible difference in cell count
CN(Cc1cnc2nc(N)nc(N)c2n1)c1ccc(C(=O)N[C@@H](CCC(=O)O)C(=O)O)cc1 [methotrexate],SARS-CoV-2 replication,[16],reduced
